The Kinase Knowledgebase extract (Sharma et al. 2016)

Target: PIK3CG (human) (UniProt P48736)
Assay: Inhibition of PIK3CG Kinase Activity

Sequence of PIK3CG (human) (P48736 whole entry, looked up): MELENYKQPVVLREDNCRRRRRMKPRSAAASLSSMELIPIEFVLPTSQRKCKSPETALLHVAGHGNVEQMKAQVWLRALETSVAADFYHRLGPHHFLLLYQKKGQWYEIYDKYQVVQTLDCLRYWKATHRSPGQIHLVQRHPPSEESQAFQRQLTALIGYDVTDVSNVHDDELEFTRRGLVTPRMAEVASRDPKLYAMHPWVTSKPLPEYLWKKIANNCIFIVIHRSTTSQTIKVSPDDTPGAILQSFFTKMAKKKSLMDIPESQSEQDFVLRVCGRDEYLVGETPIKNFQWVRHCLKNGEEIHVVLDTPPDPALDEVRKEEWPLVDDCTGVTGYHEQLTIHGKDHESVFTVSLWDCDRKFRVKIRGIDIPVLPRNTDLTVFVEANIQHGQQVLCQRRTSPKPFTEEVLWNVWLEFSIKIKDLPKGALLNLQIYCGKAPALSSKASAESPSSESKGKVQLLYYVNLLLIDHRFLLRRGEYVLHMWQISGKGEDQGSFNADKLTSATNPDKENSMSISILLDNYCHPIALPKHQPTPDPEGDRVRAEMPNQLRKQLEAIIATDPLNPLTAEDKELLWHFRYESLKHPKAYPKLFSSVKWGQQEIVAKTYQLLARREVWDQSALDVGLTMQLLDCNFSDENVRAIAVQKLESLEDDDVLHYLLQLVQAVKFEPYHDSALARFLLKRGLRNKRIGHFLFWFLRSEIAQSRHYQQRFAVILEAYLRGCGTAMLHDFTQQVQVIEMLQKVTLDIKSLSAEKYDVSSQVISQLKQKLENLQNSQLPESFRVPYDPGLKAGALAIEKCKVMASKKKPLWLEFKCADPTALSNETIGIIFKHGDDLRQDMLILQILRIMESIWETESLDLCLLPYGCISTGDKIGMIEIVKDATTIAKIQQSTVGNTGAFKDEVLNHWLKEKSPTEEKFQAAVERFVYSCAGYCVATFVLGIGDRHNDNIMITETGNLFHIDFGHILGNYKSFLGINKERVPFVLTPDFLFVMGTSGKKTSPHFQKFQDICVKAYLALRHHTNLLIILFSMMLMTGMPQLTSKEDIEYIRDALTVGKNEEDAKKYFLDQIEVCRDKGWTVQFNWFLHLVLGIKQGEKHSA

Compound | Ki [nM]
CC#CCn1cc(N2Cc3cc(-c4cnc(OC)c(OC)c4)ccc3C2=O)cn1 | 100 to 490
COc1cc(-c2ccc3c(n2)CN(c2ccc(N4CCC(CCO)C4)nc2)C3=O)cnc1OC (configuration not stated) | 100 to 490
COc1cc(-c2ccc3c(c2)CN(c2cnn(C)c2)C3=O)cnc1OC | 100 to 490
CCn1cc(N2Cc3nc(-c4cccc(OC)c4)cc(C)c3C2=O)cn1 | < 100
Cc1cc(-c2cncc(F)c2)nc2c1C(=O)N(c1cnn(CC#N)c1)C2 | < 100
COc1cc(-c2cc(C)c3c(n2)CN(c2cnn(CC(F)(F)F)c2)C3=O)ccn1 | < 100
COc1ncc(-c2cc(C)c3c(n2)CN(c2ccn(C(C)(C)C#N)n2)C3=O)cc1OCC(F)F | < 100
COc1cc(-c2cc(C)c3c(n2)CN(c2cnn(C(C)(C)C(N)=O)c2)C3=O)cnc1OC | < 100
COc1ncc(-c2cc(C)c3c(n2)C(C)(C)N(c2cnn(CC(F)(F)F)c2)C3=O)cc1C(=O)NC1COC1 | < 100
Cc1cc(-c2cncc(OC(F)F)c2)nc2c1C(=O)N(c1cn[nH]c1)C2(C)C | < 100
CCNC(=O)c1cncc(-c2cc(C)c3c(n2)C(C)N(c2cnn(CC(F)(F)F)c2)C3=O)c1 (configuration not stated) | < 100
COc1cncc(-c2cc(C)c3c(n2)CN(c2ccn(C4COC4)n2)C3=O)c1 | < 100
COc1cc(-c2ccc3c(n2)[C@H](C)N(c2ccnc(CC#N)c2)C3=O)cnc1OC | < 100
COc1cc(-c2cc(C)c3c(n2)CN(c2ccnc(C4(C#N)CC4)c2)C3=O)cnc1OC | < 100
COc1cc(-c2ccc3c(c2)CN(c2cccc(Cn4cncn4)c2)C3=O)cnc1OC | < 100
CCn1ccc(N2C(=O)c3c(C)cc(-c4cncc(OCC(F)F)c4)nc3[C@@H]2C)n1 | 100 to 490
COc1cncc(-c2cc(C)c3c(n2)[C@@H](C)N(c2ccn(CC(C)(C)O)n2)C3=O)c1 | < 100
CCNC(=O)c1cc(-c2cc(C)c3c(n2)C(C)N(c2cnn(CC(F)(F)F)c2)C3=O)cnc1OC (configuration not stated) | < 100
COc1cc(-c2ccc3c(n2)[C@H](OC)N(c2cnn(CC(F)(F)F)c2)C3=O)cnc1OC | < 100
CCOc1cncc(N2Cc3nc(-c4cnc(OC)c(OC)c4)cc(C)c3C2=O)c1 | < 100
CC[C@H]1c2nc(-c3cnc(OC)c(OC)c3)ccc2C(=O)N1c1cnn(CC(F)(F)F)c1 | 100 to 490
CCn1ncc(N2Cc3nc(-c4cnc(OC)c(OC)c4)cc(C)c3C2=O)n1 | < 100
Cc1cc(-c2cncc(OC(F)F)c2)nc2c1C(=O)N(c1cnn(CC(F)(F)F)c1)C2C (configuration not stated) | < 100
COC(=O)CC1c2nc(-c3cnc(OC)c(OC)c3)ccc2C(=O)N1c1cnn(CC(F)(F)F)c1 (configuration not stated) | < 100

Compound | Ki [nM]
COc1cc(-c2ccc3c(n2)CN(c2cnn(Cc4cc(C)no4)c2)C3=O)cnc1OC | < 100
CCn1ccc(N2C(=O)c3c(C)cc(-c4cncc(OC(F)F)c4)nc3C2C)n1 (configuration not stated) | < 100
COCCOc1ncc(-c2ccc3c(n2)CN(c2cnn(CC#N)c2)C3=O)cc1OC | < 100
COc1cc(-c2cc(C)c3c(n2)CN(c2cc(C)n(CCC4OCCCO4)n2)C3=O)cnc1OC | < 100
COc1ncc(-c2cc(C)c3c(c2)C(C)N(c2cnn(CC(F)(F)F)c2)C3=O)nc1OC (configuration not stated) | < 100
COc1ncc(-c2cc(C)c3c(n2)CN(c2cnn(C(C)(C)C#N)c2)C3=O)cc1OCC1CC1 | < 100
COc1cncc(-c2cc(C)c3c(n2)C(C)(C)N(c2ccn([C@@H]4CCOC4)n2)C3=O)c1 | 100 to 490
COCCOC1c2nc(-c3cnc(OC)c(OC)c3)ccc2C(=O)N1c1cnn(CC(F)(F)F)c1 (configuration not stated) | < 100
COc1cncc(-c2cc(C)c3c(n2)C(C)N(c2ccn(CC4CCCO4)n2)C3=O)c1 (configuration not stated) | < 100
COc1cc(-c2ccc3c(c2)CN(c2ccn(C)n2)C3=O)cnc1OC | < 100
COc1cc(-c2cc(C)c3c(n2)C(C(C)C)N(c2cnn(CC(F)(F)F)c2)C3=O)cnc1OC (configuration not stated) | < 100
CCNC(=O)c1cc(-c2cc(C)c3c(n2)C(C)(C)N(c2cnn(CC(F)(F)F)c2)C3=O)cnc1C | < 100
CCOc1cc(-c2cc(C)c3c(n2)CN(c2cnn(CC)c2)C3=O)cnc1OC | < 100
COc1cc(-c2ccc3c(n2)[C@H](C)N(c2cn[nH]c2)C3=O)cnc1OC | < 100
O=C1c2ccc(-c3cncc(OC(F)F)c3)nc2CN1c1cc[nH]n1 | 100 to 490
COc1cc(-c2ccc3c(n2)[C@@H](C)N(c2ccn(C[C@@H](C)O)n2)C3=O)cnc1OC | < 100
CCCCOCCOc1cc(-c2cc(C)c3c(n2)CN(c2cnn(CC(F)(F)F)c2)C3=O)cnc1OC | < 100
COc1cc(-c2ccc3c(n2)CN(c2cnn([C@H](C)CO)c2)C3=O)cnc1OC | < 100
COc1cc(-c2ccc3c(n2)CN(c2cnn(CCn4nccc4C)c2)C3=O)cnc1OC | 100 to 490
COc1cc(-c2cc(N3CCC3)c3c(n2)CN(c2cnn(CC(F)(F)F)c2)C3=O)cnc1OC | < 100
COc1cncc(-c2cc(C)c3c(n2)[C@@H](OC)N(c2cnn(CC(F)(F)F)c2)C3=O)c1 | < 100
COc1cc(-c2ccc3c(n2)CN(c2cccc(C(C)(C)C#N)n2)C3=O)cnc1OC | < 100
COc1cc(-c2ccc3c(n2)CN(c2ccc(N4CCC(C#N)CC4)nc2)C3=O)cnc1OC | < 100
